Measured values reported in patent publication US12728114B2, “Methods of treating inflammation” (VERU INC., priority 2021, dated 2026).
Several values for one entry are separate records, joined by “and”; a condition that tells them apart may be missing. Identical values can stand only once. Entries after “also recorded” stand apart in the source; their conditions may differ. Like-named read-outs stand apart in the source and are kept apart here.

Key:
CXCL-1/KC = format: cell-based, mouse
TNF-α [1] = format: cell-based, mouse
IL-6 = format: cell-based, mouse
IL-1α = details: 17ya 40 nM, Dex 10 nM; for IL-1α, replicate 1 / IL-1α, replicate 2 / IL-1α, replicate 3: mouse spleen cells, LPS 5 μg/ml
IL-1β [2] = tested on: IL-1β
IL-1β [3] = assay: ELISA assay to determine IL-1β in PMA-differentiated THP-1 cells stimulated by nigericin; format: cell-based, human; details: 17ya 40 nM-5 μM, colchicine 1-10 μM, 1 hr, nigericin 20 μM 1 hr
Procedure: Concentrations of IL-1β in culture supernatant. […] IL-1β level was assessed by enzyme-linked immunosorbent assay (ELISA) kit for human IL-1β (R&D systems) (****P<0.0001, Ordinary one-way ANOVA, Prism 9).

TNF-α [4] = assay: Splenocyte model, flow cytometry of TNF-α expressing cells after LPS; format: cell-based, mouse; details: 200 nM, 2 hrs preincubation, LPS 5 μg/mL 20 hrs; LPS alone 6.48%, unstimulated 1.03%
Procedure: Briefly, cells were washed two times with FACS (PBS containing 1% serum FBS) staining buffer and fully re-suspended in Cyto-Fast Fix/Perm Buffer for 20 min. Then the cells were washed again for two times with Cyto-Fast Perm wash solution and subsequently stained with recommended dilutions of intracellular antibodies for 30 min at room temperature in the dark. After staining, the cells were washed twice in FACS staining buffer, before they were resuspended in FACS staining buffer and analyzed using a NovoCyte flow cytometer (Agilent, Santa Clara, CA). […] FIG. 2E illustrates the flow cytometry of splenocytes incubated with LPS and Colchicine (200 nM).

[5] = adjusted data (control average subtracted)
[6] = adjusted data (control average subtracted), mouse spleen cells, LPS 5 μg/ml, 17ya 40 nM, Dex 10 nM
[7] = raw data, mouse spleen cells, LPS 5 μg/ml, 17ya 40 nM, Dex 10 nM

## C[C@@H]1C[C@H]2[C@@H]3CCC4=CC(=O)C=C[C@]4(C)[C@@]3(F)[C@@H](O)C[C@]2(C)[C@@]1(O)C(=O)CO [Dex, dexamethasone]
CXCL-1/KC
  CXCL-1/KC, Average: 136.043 and 253.688
  CXCL-1/KC, replicate 1: 133.410 and 251.054
  CXCL-1/KC, replicate 2: 132.285 and 249.929
  CXCL-1/KC, replicate 3: 142.436 and 260.08
  average cytokine suppression, KC: 59%
TNF-α [1]
  TNF-α, Average: 32.414 and 33.60
  TNF-α, replicate 1: 34.2933 and 35.478
  TNF-α, replicate 2: 31.309 and 32.494
  TNF-α, replicate 3: 31.640 and 32.825
  average cytokine suppression, TNF-α: 79%
IL-6
  IL-6, replicate 1: 99.55 and 17.594
  IL-6, replicate 2: 73.64 and −8.316
  IL-6, replicate 3: 72.76 and −9.196
  average cytokine suppression, IL-6: 100%
IL-1α; LPS-stimulated mouse spleen cells
  average cytokine suppression, IL-1α: 106%
IL-1α; [5]
  IL-1α, replicate 1: −10.371
  IL-1α, replicate 2: −2.519
  IL-1α, replicate 3: 3.688
IL-1α; raw data
  IL-1α, replicate 1: 22.962
  IL-1α, replicate 2: 30.814
  IL-1α, replicate 3: 37.012
IL-1β [2]
  IL-1β, replicate 2: 4.382
IL-1β [2]; LPS-stimulated mouse spleen cells, 17ya 40 nM, Dex 10 nM
  average cytokine suppression, IL-1β: 110%
IL-1β [2]; [6]
  IL-1β, replicate 1: −1.904
  IL-1β, replicate 2: −2.334
IL-1β [2]; [7]
  IL-1β, replicate 1: 4.812
  IL-1β, replicate 3: 3.956

## COc1cc2c(c(OC)c1OC)-c1ccc(OC)c(=O)cc1[C@@H](NC(C)=O)CC2 [colchicine]
IL-1β [3]
  IL-1β secretion in response to nigericin stimulation: dose-dependently (partially) suppressed the IL-1β levels; also recorded: significantly suppressed IL-1β secretion
TNF-α [4]
  spleen cells expressing TNF-α: 3.30%
